Here are results for one compound from patent EP1101492A1, “NOVEL REMEDIES FOR ALLERGIC DISEASES” (FUJI YAKUHIN KOGYO KABUSHIKI KAISHA, priority 1998, dated 2000).

Test [1] concerns mouse experimental atopic dermatitis models. Briefly: Auricle edema in experimental atopic dermatitis model (anti-DNP IgE sensitization, DNFB elicitation). Type of test: in vivo, Balb/c mice. The conditions noted are these: for % Inhibition vLPR: auricle edema Day 7 post-elicitation.
For test [2], the system named is guinea pig allergic rhinitis models. The test is described as follows: Allergic rhinitis model: nasal airway resistance. It counts as in vivo, Guinea pigs. The conditions noted are these: 15 mg/kg s.c. one hour prior to rhinitis-induction; N=5; recorded 20 minutes after antigen-challenge. The method, then:
Guinea pigs (male, Std:Hartley, 3 weeks old) were housed and fed in a aluminum cage at a rate of up to 5 animals per cage. After acclimatization for 1 week, the guinea pigs were administered intravenously with an anti-ovalbumin antibody (Nihon Bioresearch Inc., Hajima Institute; antibody titer by a 3-hour homologous passive cutaneous anaphylaxis reaction, 1 : 8192) prepared according to the Orange & Moore method (Orange, R. P. and Moore, E. G., The Journal of Immunology 116: p.392-397, 1976) into their auricle vein at a dose of 0.3 mL/animal for passive sensitization. Twenty four to twenty six hours after sensitization under conditions of fast and free access to drinking water, the sensitized guinea pigs were anesthetized with urethane (1.2 g/kg, intraperitoneal administration), fixed in a supine position, and mediad excised cervically to expose tracheas. […] Variations of the ventilatory overflow were quantitatively recorded on a recticoder (RECTI-HORIZ-8K, Nippon Denki Sanei K.K.) for 20 minutes after antigen-challenge.
Wave height (cm) was measured on recorded papers and a nasal airway resistance value was calculated according to the following formula: Percent Increase (%) in Nasal Airway Resistance =((Observed Value) - (Value prior to Administration))/((Complete Obstruction)- (Value prior to Administration))× 100 [formula] […]

Take `CNC(=O)[C@H](Cc1ccc(NC(=N)N)cc1)NC(=O)[C@H](CC(C)C)C(CCCc1ccccc1)C(=O)NO` (single isomer, unassigned) [Compound No. 130, N-[4-(N-Hydroxyamino)-2(R)-isobutyl-3(R or S)-(3-phenyltrimethylene)succinyl)-L-4'-guanidophenylalanine-N-methylamide 1 acetate]: the “inhibitory efficacy on IgE-mediated auricle edema (FIG. 7)” value in test [1] (50 µg/ear/dose in ethanol painted twice a day, 1 hour pre-elicitation, 0.25, 3, 4, 5 and 6 days post-elicitation) is “endowed with an inhibitory activity on edemas in any of IPR, LPR, and vLPR”. Further, in test [1] (60 mg/kg s.c. 24 and 2 hours prior to elicitation only, compared with prednisolone 10 mg/kg i.p., IPR 1 hour, LPR 1 day, vLPR 7 days), the “inhibitory efficacy on IgE-mediated auricle edema (FIG. 6)” value is “edema-inhibitory activity equivalent to that of prednisolone in IPR and slightly and markedly higher than that of prednisolone in LPR and vLPR, respectively”. In addition, the “% Inhibition IPR” value in test [1] (auricle edema 1 hour post-elicitation, test compounds 60 mg/kg s.c., prednisolone 10 mg/kg i.p., once a day, 24 & 2 hours prior to DNFB-elicitation, vs untreated group) amounted to 64.4%. Besides, the “% Inhibition LPR” value in test [1] (auricle edema Day 1 post-elicitation, test compounds 60 mg/kg s.c., prednisolone 10 mg/kg i.p., once a day, 24 & 2 hours prior to DNFB-elicitation, vs untreated group) was determined as 51.3%. Also, the “% Inhibition vLPR” value in test [1] (test compounds 60 mg/kg s.c., prednisolone 10 mg/kg i.p., daily from 3 to 6 days after DNFB-elicitation) came to 52.7%; in test [1] (test compounds 60 mg/kg s.c., prednisolone 10 mg/kg i.p., daily from 1 day prior to through 5 days after DNFB-elicitation) it was 79.0%. For the same compound, in test [2], the “increase in nasal airway resistance due to antigen challenge (FIG. 15)” value is “markedly ameliorates an increase in nasal airway resistance”.
